Reference: patent US20140249105A1, “NOVEL CERAMIDE ANALOGUES, PROCESSES FOR PREPARING SAME AND USES THEREOF” (Diverchim, priority 2011, published 2014)
Where “and” joins values, the source holds several entries; their conditions need not be identical. Equal values may be shown once. Values belong to the compound of their own block, whether it stands above or below them.

Columns and labels:
Type in all cases: cell-based
[1] = test system: Normal human epidermal keratinocytes (NHEK); assay: Proliferation and/or migration of keratinocytes, artificial wound coverage; conditions: percentage coverage at 48 h
Method: The phases of migration and proliferation of cells are major phases of healing that occur after the inflammation phase and are necessary for recolonization of the wound. An increase in the migration and proliferation of cells allows an improvement in healing. • Biological model: Normal human epidermal keratinocytes (NHEK) • Culture conditions: 37° C., 5% CO2 • Culture medium: Keratinocyte-SFM-PE-EGF (keratinocyte culture medium—serum free medium (SFM) without pituitary extract (PE) and without Epidermal Growth Factor (EGF) • Conditions: • Control (n=6) • Reference: EGF (Epidermal Growth Factor) at 10 ng/ml (n=2) • compounds tested (n=2) • Incubation: 72 hours • Assay: Normal human keratinocytes were seeded on 96-well plates suitable for the migration studies. In these plates, the substrates were pretreated with a solution of collagen and a mask was placed at the centre of each well, preventing adhesion of the cells in this zone and thus forming an artificial wound. After labelling the cells with calcein, the masks were removed and then the cells were treated with the compounds or the reference. The migration of the cells was monitored microscopically for 72 hours, taking photographs at 0 h, 24 h, 48 h and 72 h. The results are expressed in percentage coverage and compared with the untreated control.

[2] = target: T1, tyrosinase (DOPA oxidase) (Homo sapiens, UniProt P14679); assay: Screening of anti-tyrosinase activity: DOPA oxidase reaction on separated epidermis, count of DOPA positive melanocytes per mm2; conditions: for Variation/control: DOPA positive melanocyte count per mm2 vs DOPA control, product at 30 μg/mL in DMSO; for effectiveness for limiting tyrosinase activity compared with reference compounds: vs ref 1
T1 construct: from tissue; host or cells: separated human epidermis from a frozen abdominoplasty (melanocytes in situ)
T1 sequence (P14679 19-529): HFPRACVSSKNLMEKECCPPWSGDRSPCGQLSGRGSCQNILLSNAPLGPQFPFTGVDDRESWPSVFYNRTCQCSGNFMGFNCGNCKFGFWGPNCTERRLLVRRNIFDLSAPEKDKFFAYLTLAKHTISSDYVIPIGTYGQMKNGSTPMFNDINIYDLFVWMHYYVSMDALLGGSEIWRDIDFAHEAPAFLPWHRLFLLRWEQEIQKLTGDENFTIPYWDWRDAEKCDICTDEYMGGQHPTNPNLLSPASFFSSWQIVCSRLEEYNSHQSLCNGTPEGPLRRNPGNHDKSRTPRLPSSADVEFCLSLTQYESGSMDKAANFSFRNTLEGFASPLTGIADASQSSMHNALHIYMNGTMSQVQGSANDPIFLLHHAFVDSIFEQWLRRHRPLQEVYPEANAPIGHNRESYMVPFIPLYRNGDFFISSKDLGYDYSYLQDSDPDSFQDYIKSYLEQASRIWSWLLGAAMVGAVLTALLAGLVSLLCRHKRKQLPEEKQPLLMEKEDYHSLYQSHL
Method: The products are tested in solution at 30 μg/mL in DMSO. Epidermis samples originating from a frozen abdominoplasty (person) were separated by incubation in 2N NaBr for 1.0 h at 37° C. They were then fixed in a buffered formolized fixing agent, rinsed and put in contact with the volume/volume mixture: solutions of L-DOPA/test formulation. After incubation, they were rinsed and mounted between slide and cover slip with mounting liquid of the Aquatex type. Observation was by optical microscopy with ×10 objective. Images were obtained with a tri CCD Sony DXC […] camera and stored using the Leica IM1000 data archiving software. For each batch, several microscope fields were analysed using the LEICA QWin image analysis software. For each field, the DOPA positive melanocytes were counted and the area of the zone was measured to determine the melanocyte count per mm^2.

B16 melanocytes [3] = assay: Screening of anti-melanogenesis activity: melanin assay in B16 melanocytes stimulated with NDP-MSH; conditions: 72 h; for inhibition at 30 µM / inhibition at 100 µM: Melanocyte, read-out: Normalized data inhibition (%)
Method: This was carried out for compounds in solution in DMSO. The synthesis of melanin was measured in a model of B16 melanocytes stimulated with a stable derivative of α-MSH (natural hormone that stimulates melanogenesis: Melanocyte Stimulating Hormone): NDP-MSH ([Nle^4, DPhe7]-α-MSH).
(§1) Melanocytes were seeded on a 96-well plate and cultured for 24 h (37° C., 5% CO2, DMEM 1 g/L glucose without phenol red supplemented with glucose 3 g/L, L-glutamine 2 mM, penicillin 50 U/mL, streptomycin 50 μg/mL, fetal calf serum (FCS) 10%). […] Each experimental condition was carried out with n=3, apart from the controls carried out with n=6. The cells were then incubated for 72 h. Wells without cells received in parallel the same quantities of medium, supplemented or not with NDP-MSH and with or without the test compounds or the reference in order to quantify the background noise associated with the presence of the compounds.
At the end of 72 hours of incubation, the total melanin (intra- and extracellular) was quantified by measuring the absorbance of each sample at 405 nm (direct reading of the culture plates) against a standard range of melanin (melanin concentrations tested from 0.78 to 100 μg/mL). The background noise, measured in the wells without cells, was subtracted from the values measured so that only the effect connected with the production of melanin is taken into account, without including any interference connected with the presence of the compounds. The results were expressed in percentage of melanin relative to the control as well as in percentage inhibition.

B16 melanocytes [4] = assay: Viability of the cells, test of reduction of MTT; conditions: 72 h
Method: as §1
At the end of the treatment, the cells were incubated in the presence of MTT (3-(4,5-dimethylthiazol-2-yl)-2,5-diphenyl tetrazolium bromide), the conversion of which to blue crystals of formazan is proportional to the activity of succinate dehydrogenase (mitochondrial enzyme). After disruption of the cells, the formazan was dissolved in DMSO medium and the optical density (OD), representative of the number of live cells and of their metabolic reactivity, was measured with a microplate reader at 540 nm (VERSAmax, Molecular Devices).

Structure (SMILES): O=C(N[C@H]1CCC[C@H]1NC(=O)/C(F)=C/CCCCCCCO)/C(F)=C/CCCCCCCO [c45]
% control 48 h ([1]; 3 μM): 145 % control

Variation/control [2]: −56
Structure (SMILES): O=C(NC1CCC(NC(=O)C(F)=CCCCCCCCCO)C1)C(F)=CCCCCCCCCO (mixture of isomers) [c59]
effectiveness for limiting tyrosinase activity compared with reference compounds [2]: more effective than the reference compounds
Normalized data inhibition (%) (B16 melanocytes [3]; 1 μM): 0%
Normalized data inhibition (%) (B16 melanocytes [3]; 3 μM): 9%
Normalized data inhibition (%) (B16 melanocytes [3]; 10 μM): 38%
Normalized data inhibition (%) (B16 melanocytes [3]; 30 μM): 71%
Normalized data inhibition (%) (B16 melanocytes [3]; 100 μM): 118%
Viability (MTT) % stimulated control (B16 melanocytes [4]; 1 μM): 108 % stimulated control
Viability (MTT) % stimulated control (B16 melanocytes [4]; 3 μM): 90 % stimulated control
Viability (MTT) % stimulated control (B16 melanocytes [4]; 10 μM): 88 % stimulated control
Viability (MTT) % stimulated control (B16 melanocytes [4]; 30 μM): 82 % stimulated control
Viability (MTT) % stimulated control (B16 melanocytes [4]; 100 μM): 2 % stimulated control

Variation/control [2]: −61
Structure (SMILES): O=C(N[C@H]1C[C@H]1NC(=O)/C(F)=C/CCCCCCCCCCCO)/C(F)=C/CCCCCCCCCCCO [c40]
effectiveness for limiting tyrosinase activity compared with reference compounds [2]: more effective than the reference compounds
% control 48 h ([1]; 30 μM): 144 % control
Normalized data inhibition (%) (B16 melanocytes [3]; 10 μM): −1%
Viability (MTT) % stimulated control (B16 melanocytes [4]; 10 μM): 89 % stimulated control
Viability (MTT) % stimulated control (B16 melanocytes [4]; 30 μM): 85 % stimulated control and 94 % stimulated control
Viability (MTT) % stimulated control (B16 melanocytes [4]; 100 μM): 86 % stimulated control and 94 % stimulated control

Structure (SMILES): O=C(N[C@H]1C[C@H]1NC(=O)C(F)=CCCCCCCCO)C(F)=CCCCCCCCO [c36]
% control 48 h ([1]; 3 μM): 154 % control

Variation/control [2]: −24
Structure (SMILES): O=C(O)/C=C/CCCCCCCCCO [Ref 6, (E)-12-Hydroxy-dodec-2-enoic acid, reference compound]

Variation/control [2]: −36
Structure (SMILES): O=C(O)C(F)=CCCCCCCCCCCCO [Ref 4, 2-Fluoro-14-hydroxy-tetradec-2-enoic acid, reference compound]
inhibition at 30 µM (B16 melanocytes [3]; 30 μM): 0%
inhibition at 100 µM (B16 melanocytes [3]; 100 μM): 0%
Viability (MTT) % stimulated control (B16 melanocytes [4]; 30 μM): 114 % stimulated control
Viability (MTT) % stimulated control (B16 melanocytes [4]; 100 μM): 95 % stimulated control

Variation/control [2]: −16
Structure (SMILES): O=C(O)/C=C/CCCCCCCCCCCCCCCO [Ref 1, (E)-18-Hydroxy-octadec-2-enoic acid, reference compound]
inhibition at 30 µM (B16 melanocytes [3]; 30 μM): 0%
inhibition at 100 µM (B16 melanocytes [3]; 100 μM): 115%
Viability (MTT) % stimulated control (B16 melanocytes [4]; mouse, 30 μM): 79 % stimulated control
Viability (MTT) % stimulated control (B16 melanocytes [4]; mouse, 100 μM): 63 % stimulated control

Variation/control [2]: −48
Structure (SMILES): O=C(/C=C/CCCCCCCCCCCCCCO)N[C@H]1C[C@@H]1NC(=O)/C=C/CCCCCCCCCCCCCCO (relative stereo) [c93]

Variation/control [2]: −45
Structure (SMILES): CCCCCCCCCCC/C=C/C(=O)N[C@H]1CCC[C@H]1NC(=O)/C=C/CCCCCCCCCCC [c79]
% control 48 h ([1]; 1 μM): 141 % control

Structure (SMILES): O=C(NC1CCCC1NC(=O)C(F)=CCCCCCCCCCCCCCCO)C(F)=CCCCCCCCCCCCCCCO (stereo not drawn) [c53]
% control 48 h ([1]; 3 μM): 137 % control

Structure (SMILES): O=C(/C=C/CCCCCCCCCCCO)N[C@H]1CCC[C@H]1NC(=O)/C=C/CCCCCCCCCCCO [c17]
% control 48 h ([1]; 1 μM): 141 % control

Variation/control [2]: −29
Structure (SMILES): O=C(O)/C=C/CCCCCCCCCCCCO [Ref 5, (E)-15-Hydroxy-pentadec-2-enoic acid, reference compound]

Variation/control [2]: −15
Structure (SMILES): O=C(O)/C=C/CCCCCCCCCCCO [Ref 3, (E)-14-Hydroxy-tetradec-2-enoic acid, reference compound]

Variation/control [2]: −45
Structure (SMILES): CCCCCCCCC=CCCCCCCCC(=O)NC1CCCC1NC(=O)CCCCCCCC=CCCCCCCCC (stereo not drawn) [c127]

Structure (SMILES): O=C(N[C@@H]1CC[C@H](NC(=O)/C(F)=C\CCCCCOC2CCCCO2)C1)/C(F)=C\CCCCCOC1CCCCO1 (stereo partly drawn) [c106]
Normalized data inhibition (%) (B16 melanocytes [3]; 30 μM): 114%
Normalized data inhibition (%) (B16 melanocytes [3]; 100 μM): 119%
Viability (MTT) % stimulated control (B16 melanocytes [4]; 30 μM): 73 % stimulated control
Viability (MTT) % stimulated control (B16 melanocytes [4]; 100 μM): 36 % stimulated control

Structure (SMILES): O=C(NC1CCCC1NC(=O)C(F)=CCCCCCCCCOC1CCCCO1)C(F)=CCCCCCCCCOC1CCCCO1 (mixture of isomers) [c71]
Normalized data inhibition (%) (B16 melanocytes [3]; 30 μM): 93%
Normalized data inhibition (%) (B16 melanocytes [3]; 100 μM): 109%
Viability (MTT) % stimulated control (B16 melanocytes [4]; 30 μM): 116 % stimulated control
Viability (MTT) % stimulated control (B16 melanocytes [4]; 100 μM): 104 % stimulated control
